Measured values: US11958865B1, “Leucine-rich repeat kinase 2 (LRRK2) inhibitors” (H. Lundbeck A/S, priority 2022, dated 2024)
Like-named read-outs stand apart in the source and are kept apart here.

Legend:
[1] = Hepatocyte intrinsic clearance assay; type: in vitro ADME, Human; conditions: pooled donor, cryopreserved hepatocytes, pH 7.4; human hepatocytes 1×10^6/mL; 0.05 μM; 2 h at 37° C.
Experimental: Test compounds (final concentration 0.05 μM, 0.05% organic) were incubated for 2 h at 37° C., with shaking, in supplemented Leibovitz L-15 media (pH 7.4) containing commercially sourced, pooled donor, cryopreserved hepatocytes (final concentration 1×10^6 hepatocytes/mL). The CLint reactions (350 μL) were initiated by addition of test compound. Aliquots (25 μL) were taken at 1, 5, 10, 15, 30, 60, 90 and 120 minutes and then protein crashed with ice-cold acetonitrile containing internal standard (150 μL) then centrifuged (1960 g for 20 minutes at 4° C.). Supernatant was diluted (1:4) with deionized water then analyzed by liquid chromatography (LC)-tandem mass spectrometry (MS/MS).

[2] = Hepatic microsomal intrinsic clearance assay; type: in vitro ADME; conditions: for CLint scaled at 1 μM: pooled liver microsomes, pH 7.4, liver microsomes 0.5 mg/mL, NADPH, 1 hour at 37° C., LLOQ 0.36 L/h/kg
Experimental: Compounds (final concentration 1 μM, 1% organic) of the invention were incubated for 1 hour at 37° C., with shaking, in phosphate buffer (pH 7.4) containing commercially sourced pooled liver microsomes (final concentration 0.5 mg/mL). […] At designated time points (0, 5, 10, 20, 30 and 60 minutes) ice-cold acetonitrile containing internal standard (300 μL) was added to an incubation well to stop the reaction then mixed and centrifuged (3220 g for 20 minutes at 4° C.). Supernatant was diluted (1:4) with deionized water then analyzed by LC-MS/MS.

[3] = target: LRRK2 G2019S (Homo sapiens (Human), UniProt Q5S007, G2019S); test: LRRK2 G2019S LanthaScreen TR-FRET kinase activity assay; type: biochemical; conditions: 250 pM kinase, 1.3 mM ATP, n≥2 tests
Experimental: (§1) LRRK2 kinase activity was measured using a LanthaScreen kinase activity assay available from Invitrogen (Life Technologies Corporation). […] The phosphorylated peptide is recognized by a terbium-labelled phospho-specific anti-LRRKtide antibody (pLRRKtide antibody), obtainable from Life Technologies Corporation) and, subsequently, the phosphorylated LRRKtide can be quantified by the extent of TR-FRET between the terbium donor and fluorescein acceptor.
(§2) As discussed above, this mutation increases the kinase activity relative to the wild type. The kinase reactions were performed in a 20 μL volume in 384-well plates. The kinase reaction buffer consisted of 50 mM Tris pH 8.5, 0.01% BRIJ-35, 10 mM MgCl2, 1 mM EGTA, and 2 mM DTT.
(§3) The mixture was further incubated for 30 minutes at RT. TR-FRET was measured by excitation of the terbium-donor with 340 nm light and subsequent (delay time […]) measurement of terbium and fluorescein emission at 495 nm and 520 nm, respectively, over a time window of […]. The measurement was repeated 30 times for fluorescein and 30 times for terbium emission with a […] between repeats. TR-FRET measurements were performed on a Biotek Synergy plate. The TR-FRET signal was calculated as the emission-ratio at 520 nm over 495 nm.
(§4) Test compound potency (IC50) was estimated by nonlinear regression using the sigmoidal dose-response (variable slope) using Xlfit 4 (IDBS, Guildford, Surrey, UK, model 205). Were the IC50 could not be determined the % inhibition at the highest tested concentration is given by equation 1. Equation (1): y=(A+((B−A)/(1+((C/x)^D)))) (1)
(§5) where y is the normalized TR-TRET ratio measurement for a given concentration of test compound, x is the concentration of test compound, A is the estimated efficacy (% inhibition) at infinite compound dilution, and B is the maximal efficacy (% inhibition). C is the IC50 value and D is the Hill slope coefficient. IC50 estimates were obtained from independent experiment and the logarithmic average was calculated.

[4] = target: T1, LRRK2 WT (Homo sapiens (Human), UniProt Q5S007); test: LRRK2 wild-type LanthaScreen TR-FRET kinase activity assay; type: biochemical; conditions: 1 nM kinase, 1.3 mM ATP, n≥2 tests
Experimental: as §1, §2, §3, §4, §5

[5] = target: T1, LRRK2 WT; test: LRRK2 wild-type ADP-Glo kinase assay; type: biochemical; conditions: 0.5 nM kinase; 1.0 mM ATP; IC50=Ki,app+[E]/2; n≥2 tests; read-out: LRRK2 WT ADPGlo IC50
Experimental: LRRK2 kinase activity was measured using an ADP-Glo kinase assay from Promega Corporation. The assay is a homogeneous luminescence-based assay that measures ADP formed from a kinase reaction. The ADP is converted into ATP, which is used to generate light in a luciferase reaction. The luminescence generated correlates with kinase activity.
The LRRK2 kinase was obtained from Invitrogen (Life Technologies Corporation) and comprises residue 970 to 2527 of the full length human wild-type LRRK2 kinase. The kinase reactions were performed in a 10 μL volume in 384-well plates. The kinase reaction buffer consisted of 50 mM Tris pH 8.5, 0.01% BRIJ-35, 10 mM MgCl2, 1 mM EGTA, and 2 mM DTT.
The reaction mixture (10 μl total volume) was incubated for 3 hours at room temperature (RT, ca. 25° C.), before the reaction was terminated by addition of 10 μl ADP-Glo reagent. The mixture was further incubated for 60 minutes at RT before addition of 20 μl Kinase detection reagent from the ADP-Glo assay kit. Luminescence signal was measure on a BMG Labtech Pherastar FSX multimode microplate reader. The signal integration time was 0.5 s.
Test compound potency (Ki,app) was estimated by nonlinear regression using the tight-binding fit model in GeneData Screener (GeneData AG). In cases where the Ki,app could not be determined, the % inhibition at the highest tested concentration is reported. The tight-binding fit model is given by euquation (2). […] Ki,app is the apparent dissociation constant of the inhibitor. The IC50 can be calculated as given by equation (3). Equation (3): IC50=Ki,app+[E]/2 (3) IC50 estimates were obtained from independent experiment and the logarithmic average was calculated.

[6] = Rat brain disposition after oral gavage; type: in vivo, male Sprague-Dawley rats; conditions: male, Sprague-Dawley, oral 5 mg/kg, 1 h, mean ± stdev; for Kp at 1 h / Kp uu at 1 h: n=3
Experimental: Brain disposition was evaluated in male Sprague-Dawley rats (n=3, standard body weight). Briefly, test compound was formulated as a simple suspension (0.5% HPMC in water) then administered by oral gavage (10 mg/kg, 10 mL/kg or 5 mg/kg, 10 mL/kg). At the designated time point (0.5 or 1 h post dose) rats were sacrificed and terminal blood and brain samples taken. Isolated plasma and brain homogenates were extracted by standard protein precipitation in acetonitrile, containing internal standard. Diluted extracts were analyzed by liquid-chromatography coupled with tandem mass spectrometry detection (LC-MS/MS) using a bioanalytical method. Concentrations of test compound in plasma and brain were quantified against matrix matched calibration standards. The total plasma and brain concentration time data are presented in Table 4 alongside the calculated brain Kp (total brain concentration:total plasma concentration ratio).
The total brain-to-plasma partition coefficient (brain Kp) is given by the ratio of the total brain concentration and total plasma concentration of the compound according to the equation below: […]
Based on the measured rat fuplasma and fubrain values and the brain Kp the unbound brain-to-plasma partition coefficient (brain Kp,uu for each compound was calculated. The Kp,uu parameter describes the extent of brain penetration for each compound, i.e. the parameter gives a direct quantitative description of how the blood-brain barrier (BBB) handles the compounds regarding passive transport and active influx/efflux. The brain Kp,uu is given by the equation below: […]

[7] = Fraction unbound in rat plasma and brain homogenate by equilibrium dialysis; type: in vitro ADME, male Sprague-Dawley rat; conditions: 1 μM, equilibrium dialysis 5 h at 37° C.; for fubrain (% free): rat brain homogenate; for fuplasma (% free): rat plasma
Experimental: The fraction of unbound compound in male Sprague-Dawley rat plasma (fuplasma) and brain homogenate (fubrain) were determined by equilibrium dialysis using 96-well HTD-dialysis plates with dialysis membranes (molecular weight cut off 12-14 KDa). One side of the HTD-dialysis plate was loaded with matrix (plasma or brain homogenate) and the other side with buffer (100 mM sodium phosphate buffer, pH 7.4). Test compounds were dissolved in DMSO then spiked (5 μL of 0.2 mM) into blank (995 μL) plasma or diluted brain homogenate (1:4 ratio in phosphate buffer) giving a final nominal concentration 1 μM (≤0.5% DMSO). The matrices were loaded into respective chambers and equilibrated against phosphate buffer for 5 h at 37° C. (in a humidified air incubator with 5% CO2 with shaking). Samples from both chambers (buffer and plasma or brain homogenate) were aliquoted to fresh 96-well polypropylene plates then matrix matched using an equal volume of opposite blank matrix before extraction with cold solvent (3 volumes acetonitrile) containing an appropriate bioanalytical internal standard. After centrifugation (20 min, 3200 g, 4° C.) the supernatants were diluted with appropriate volumes of water and compound concentrations were quantified by LC/MS-MS against matrix matched calibration standards. The fuplasma and fubrain were calculated according to equation 4 below.
[formula] Where [F] is the compound concentration on the buffer (receiver) side of the membrane; [T] is the compound concentration on the plasma or brain (donor) side of the membrane; D is the matrix dilution factor which is determined as D=4 for brain matrix and D=1 for plasma matrix in these assays.

[8] = brain, n=3, read-out: Total brain concentration
[9] = plasma, n=3, read-out: Total plasma concentration

T1 sequence (Q5S007 970-2527): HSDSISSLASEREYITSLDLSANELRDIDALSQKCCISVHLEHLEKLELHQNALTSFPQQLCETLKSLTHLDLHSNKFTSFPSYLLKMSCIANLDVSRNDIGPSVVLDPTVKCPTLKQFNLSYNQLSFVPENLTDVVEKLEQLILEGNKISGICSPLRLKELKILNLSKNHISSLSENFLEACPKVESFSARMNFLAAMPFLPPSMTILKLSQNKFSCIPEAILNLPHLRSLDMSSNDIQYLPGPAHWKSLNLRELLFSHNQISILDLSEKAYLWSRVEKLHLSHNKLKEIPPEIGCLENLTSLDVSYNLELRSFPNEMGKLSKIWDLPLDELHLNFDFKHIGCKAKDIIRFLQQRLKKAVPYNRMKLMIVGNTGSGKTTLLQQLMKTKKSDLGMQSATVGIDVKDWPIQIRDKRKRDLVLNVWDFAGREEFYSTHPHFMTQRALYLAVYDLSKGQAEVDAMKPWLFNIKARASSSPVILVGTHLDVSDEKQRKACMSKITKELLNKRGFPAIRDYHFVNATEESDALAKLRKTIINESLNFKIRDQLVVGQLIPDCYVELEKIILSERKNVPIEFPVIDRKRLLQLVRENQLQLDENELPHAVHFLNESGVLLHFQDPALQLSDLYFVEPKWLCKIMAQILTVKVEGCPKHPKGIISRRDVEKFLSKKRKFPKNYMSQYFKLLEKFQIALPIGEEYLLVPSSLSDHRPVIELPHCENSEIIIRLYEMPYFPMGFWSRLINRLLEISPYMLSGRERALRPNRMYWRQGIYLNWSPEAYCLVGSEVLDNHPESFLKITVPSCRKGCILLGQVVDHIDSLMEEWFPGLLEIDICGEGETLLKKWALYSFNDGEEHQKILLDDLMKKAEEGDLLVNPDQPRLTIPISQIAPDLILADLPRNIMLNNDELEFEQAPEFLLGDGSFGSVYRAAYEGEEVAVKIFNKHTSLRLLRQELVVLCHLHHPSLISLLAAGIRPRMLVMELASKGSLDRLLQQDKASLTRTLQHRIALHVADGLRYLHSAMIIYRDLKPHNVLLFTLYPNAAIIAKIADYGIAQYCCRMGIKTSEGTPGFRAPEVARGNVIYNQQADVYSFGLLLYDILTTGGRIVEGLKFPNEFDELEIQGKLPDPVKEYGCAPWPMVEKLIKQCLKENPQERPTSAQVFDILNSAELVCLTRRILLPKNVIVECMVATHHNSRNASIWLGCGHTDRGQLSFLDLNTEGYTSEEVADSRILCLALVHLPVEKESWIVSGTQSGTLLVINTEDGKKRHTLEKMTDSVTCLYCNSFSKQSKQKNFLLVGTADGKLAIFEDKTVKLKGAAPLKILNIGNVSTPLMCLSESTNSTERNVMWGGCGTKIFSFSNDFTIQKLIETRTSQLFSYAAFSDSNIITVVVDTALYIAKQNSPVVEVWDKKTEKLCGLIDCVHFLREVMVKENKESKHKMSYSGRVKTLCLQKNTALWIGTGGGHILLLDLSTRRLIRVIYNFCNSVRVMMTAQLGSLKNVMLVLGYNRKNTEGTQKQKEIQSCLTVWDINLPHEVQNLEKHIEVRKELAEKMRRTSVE
Sequence of LRRK2 G2019S (Q5S007 970-2527 G2019S): as the sequence (Q5S007 970-2527) above, with G1050S counted along it

| CLint scaled at 0.05 μM [1] [mL/min/kg] | SMILES | CLint scaled at 1 μM [2] [mL/min/kg] | IC50 [3] [nM] | IC50 [4] [nM] | IC50 [5] [nM] | Kp at 1 h ([6]; brain) | Kp uu at 1 h ([6]; brain) | concentration at 1 h [6, 8] [ng/g] | concentration at 1 h [6, 9] [ng/mL] | fubrain (% free) [7] [% free] | fuplasma (% free) [7] [% free] | Rate of metabolism classification (liver microsomal CLint) ([2]; based on liver microsomal CLint values of Table 6) |
| --- | --- | --- | --- | --- | --- | --- | --- | --- | --- | --- | --- | --- |
| 16.2 | [2H]C([2H])([2H])Oc1ncc(F)cc1-n1nc2c(c1C)Nc1ncc3c(Cl)nn(c3n1)CCCO2 (single isomer, unassigned) [Example 23, 8-Chloro-2-(5-fluoro-2-(methoxy-d3)pyridin-3-yl)-3-methyl-2,4,12,13-tetrahydro-11H-5,7-(azenometheno)dipyrazolo[3,4-b:5′,1′-g][1]oxa[4,6,8]triazacycloundecine] | 23.8 | – | – | – | – | – | – | – | – | – | – |
| – | CCc1c2c(nn1-c1cccnc1OC)OCCCn1nc(Cl)c3cnc(nc31)N2 [Example 5, 8-Chloro-3-ethyl-2-(2-methoxypyridin-3-yl)-2,4,12,13-tetrahydro-11H-5,7-(azenometheno)dipyrazolo[3,4-b:5′,1′-g][1]oxa[4,6,8]triazacycloundecine] | 23.2 | 1.4 | 4 | 0.41 | 1.9 ± 0.3 | 0.8 ± 0.13 | 7 ± 3 | 4 ± 0.8 | 5.2 | 12.3 | – |
| – | CCc1c2c(nn1-c1cccnc1C)OCCCn1nc(Cl)c3cnc(nc31)N2 [Example 8, 8-Chloro-3-ethyl-2-(2-methylpyridin-3-yl)-2,4,12,13-tetrahydro-11H-5,7-(azenometheno)dipyrazolo[3,4-b:5′,1′-g][1]oxa[4,6,8]triazacycloundecine] | 16.8 | 12 | 35 | 2.5 | 0.9 ± 0.1 | 0.37 ± 0.03 | 279 ± 10 | 297 ± 29 | 7.5 | 19.3 | – |
| – | Cc1c2c(nn1-c1cccnc1OC1CC1)OCCCn1nc(Cl)c3cnc(nc31)N2 [Example 16, 8-Chloro-2-(2-cyclopropoxypyridin-3-yl)-3-methyl-2,4,12,13-tetrahydro-11H-5,7-(azenometheno)dipyrazolo[3,4-b:5′,1′-g][1]oxa[4,6,8]triazacycloundecine] | 18.7 | 0.93 | 2.1 | 0.57 | 1.3 ± 0.2 | 0.32 ± 0.06 | 141 ± 30 | 112 ± 18 | 3.5 | 13.9 | – |
| – | Cc1c2c(nn1-c1cccnc1OCF)OCCCn1nc(Cl)c3cnc(nc31)N2 [Example 18, 8-Chloro-2-(2-(fluoromethoxy)pyridin-3-yl)-3-methyl-2,4,12,13-tetrahydro-11H-5,7-(azenometheno)dipyrazolo[3,4-b:5′,1′-g][1]oxa[4,6,8]triazacycloundecine] | 11.2 | 0.49 | 0.67 | 0.44 | 2.8 ± 0.6 | 1.04 ± 0.21 | 343 ± 54 | 122 ± 11 | 4.7 | 12.8 | – |
| – | Cc1c2c(nn1-c1cccnc1OC(F)F)OCCCn1nc(Cl)c3cnc(nc31)N2 [Example 19, 8-Chloro-2-(2-(difluoromethoxy)pyridin-3-yl)-3-methyl-2,4,12,13-tetrahydro-11H-5,7-(azenometheno)dipyrazolo[3,4-b:5′,1′-g][1]oxa[4,6,8]triazacycloundecine] | 33.8 | 0.35 | 1.1 | 0.32 | 2.8 ± 0.5 | 0.87 ± 0.17 | 48 ± 11 | 19 ± 8 | 2.7 | 8.6 | moderate to high rate of metabolism |
